Our source for the IC50 values is patent US20240368135A1 (VERTEX PHARMACEUTICALS INCORPORATED, priority 2021, published 2024).

Each structure is given as a SMILES string. Like-named read-outs stand apart in the source and are kept apart here. A value given as a limit tells only on which side of the number the result lay.

The target in the assay is human NaV 1.8 (Homo sapiens, UniProt Q9Y5Y9). Briefly: E-VIPR assay detecting and measuring NaV inhibition properties. In kind it is cell-based. Conditions: HEK cells expressing truncated human NaV 1.8. From the text:
Sodium ion channels are voltage-dependent proteins that can be activated by inducing membrane voltage changes by applying electric fields. The electrical stimulation instrument and methods of use, referred to as E-VIPR, are described in International Publication No. WO 2002/008748 A3 and C.-J. Huang et al. Characterization of voltage-gated sodium channel blockers by electrical stimulation and fluorescence detection of membrane potential, 24 Nature Biotech. 439-46 (2006), both of which are incorporated by reference in their entirety. The instrument comprises a microtiter plate handler, an optical system for exciting the coumarin dye while simultaneously recording the coumarin and oxonol emissions, a waveform generator, a current- or voltage-controlled amplifier, and parallel electrode pairs that are inserted into assay plate wells. Under integrated computer control, this instrument passes user-programmed electrical stimulus protocols to cells within the wells of the microtiter plate.
16-20 hours prior to running the assay on E-VIPR, HEK cells expressing a truncated form of human NaV 1.8 with full channel activity were seeded into microtiter 384-well plates, pre-coated with matrigel, at a density of 25,000 cells per well. 2.5-5% KIR2.1 Bacmam virus was added to the final cell suspension before seeding into cell plates. HEK cells were grown in Dulbecco's Modified Eagle's Medium (DMEM) supplemented with 10% FBS (Fetal Bovine Serum, qualified; Sigma #F4135), 1% NEAA (Non-Essential Amino Acids, Gibco #11140), 1% HEPES (Gibco #15630), 1% Pen-Strep (Penicillin-Streptomycin; Gibco #15140) and 5 μg/ml Blasticidin (Gibco #R210-01). Cells were expanded in vented cap cell culture flasks, with 90-95% humidity and 5% CO2.
Human Serum (HS, Millipore #S1P1-01KL, or Sigma SLBR5469V and SLBR5470V as a 50%/50% mixture, for 25% assay final concentration) • Bath 1 Buffer: • Sodium Chloride 160 mM (9.35 g/L), Potassium Chloride, 4.5 mM (0.335 g/L), Glucose 10 mM (1.8 g/L), Magnesium Chloride (Anhydrous) 1 mM (0.095 g/L), Calcium Chloride 2 mM (0.222 g/L), HEPES 10 mM (2.38 g/L) in water. • Na/TMA C1 Bath 1 Buffer: • Sodium Chloride 96 mM (5.61 g/L), Potassium Chloride 4.5 mM (0.335 g/L), Tetramethylammonium (TMA)-Cl 64 mM (7.01 g/L), Glucose 10 mM (1.8 g/L), Magnesium Chloride (Anhydrous) 1 mM (0.095 g/L), Calcium Chloride 2 mM (0.222 g/L) HEPES 10 mM (2.38 g/L) in water. • Hexyl Dye Solution (2× concentration): • Bath 1 Buffer containing 0.5% P-cyclodextrin (made fresh prior to each use, Sigma #C4767), 8 μM CC2-DMPE and 2 μM DiSBAC6(3). The solution was made by adding 10% Pluronic F127 stock equal to combined volumes of CC2-DMPE and DiSBAC6(3). The order of preparation was first mix Pluronic and CC2-DMPE, then add DiSBAC6(3), then while vortexing add Bath 1/p-Cyclodextrin.
Compound Loading Buffer (2× concentration): Na/TMA C1 Bath1 Buffer containing HS (omitted in experiments run in the absence of human serum (HS)) 50%, VABSC-1 1 mM, BSA 0.2 mg/ml (in Bath-1), KCl 9 mM, DMSO 0.625%.
1) To reach the final concentration in each well, 375 nL of each compound was pre-spotted (in neat DMSO) into polypropylene compound plates at 240× desired final concentration from an intermediate stock concentration of 0.075 mM, in an 11 point dose response, 3-fold dilution, resulting in a top dose of 300 nM final concentration in the cell plate. Vehicle control (neat DMSO), and positive control (an established NaV1.8 inhibitor, 25 μM final in assay in DMSO) were added manually to the outermost columns of each plate respectively. The compound plate was backfilled with 45 μL per well of Compound Loading Buffer resulting in a 240 fold dilution of compound following a 1:1 transfer of compound into the cell plate (see Step 6). Final DMSO concentration for all wells in the assay was 0.625% (0.75% DMSO was supplemented to the Compound Loading Buffer for a final DMSO concentration of 0.625%). […]

Setting [1] is: no human serum, read-out: IC50 in the E-VIPR Assay.

Chain of human NaV 1.8 (Q9Y5Y9 126-399 limits assumed): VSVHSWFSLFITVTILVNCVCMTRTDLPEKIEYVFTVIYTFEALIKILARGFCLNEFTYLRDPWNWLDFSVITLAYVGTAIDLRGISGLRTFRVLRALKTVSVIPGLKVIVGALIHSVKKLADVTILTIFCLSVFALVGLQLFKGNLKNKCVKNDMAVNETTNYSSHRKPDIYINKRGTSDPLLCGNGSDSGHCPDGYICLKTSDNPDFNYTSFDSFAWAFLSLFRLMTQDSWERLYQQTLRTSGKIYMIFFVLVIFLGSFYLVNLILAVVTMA
Chain of human NaV 1.8 (Q9Y5Y9 660-890 limits assumed): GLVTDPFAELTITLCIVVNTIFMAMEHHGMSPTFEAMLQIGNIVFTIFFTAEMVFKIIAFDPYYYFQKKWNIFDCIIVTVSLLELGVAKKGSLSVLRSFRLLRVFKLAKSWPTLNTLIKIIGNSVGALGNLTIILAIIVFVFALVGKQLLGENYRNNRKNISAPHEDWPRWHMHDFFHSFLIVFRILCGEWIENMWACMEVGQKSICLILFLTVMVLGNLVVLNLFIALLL
Chain of human NaV 1.8 (Q9Y5Y9 1148-1722 limits assumed): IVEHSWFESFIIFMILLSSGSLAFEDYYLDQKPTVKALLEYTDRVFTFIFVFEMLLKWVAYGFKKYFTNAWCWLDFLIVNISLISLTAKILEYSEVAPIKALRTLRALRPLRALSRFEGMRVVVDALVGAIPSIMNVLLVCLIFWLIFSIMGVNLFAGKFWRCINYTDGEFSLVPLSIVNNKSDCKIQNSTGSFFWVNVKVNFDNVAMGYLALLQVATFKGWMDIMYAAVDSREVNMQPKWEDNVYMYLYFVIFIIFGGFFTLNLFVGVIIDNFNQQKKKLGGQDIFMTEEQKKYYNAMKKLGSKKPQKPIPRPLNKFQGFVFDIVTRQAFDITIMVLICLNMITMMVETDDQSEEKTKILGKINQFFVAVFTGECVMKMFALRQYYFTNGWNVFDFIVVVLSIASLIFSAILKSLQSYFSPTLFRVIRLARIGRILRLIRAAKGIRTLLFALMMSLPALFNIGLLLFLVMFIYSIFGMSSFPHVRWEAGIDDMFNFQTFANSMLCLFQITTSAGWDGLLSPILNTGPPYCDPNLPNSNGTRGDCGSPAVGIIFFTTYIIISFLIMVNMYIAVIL

For the compound `[2H]C([2H])([2H])Oc1c([C@H]2[C@H](C(=O)Nc3ccnc(N4CCN(C)CC4=O)c3)O[C@@](C)(C(F)(F)F)[C@H]2C)ccc(F)c1F` [Compound 518, (2R,3S,4S,5R)-3-(3,4-difluoro-2-(methoxy-d3)phenyl)-4,5-dimethyl-N-(2-(4-methyl-2-oxopiperazin-1-yl)pyridin-4-yl)-5-(trifluoromethyl)tetrahydrofuran-2-carboxamide], under setting [1], the IC50 – broadly, the concentration that inhibits the measured activity by half – is < 10 nM.
The same measure, in the same setting: the value for `CCS(=O)(=O)c1cc(NC(=O)[C@H]2O[C@](C)(C(F)(F)F)[C@H](C)[C@@H]2c2ccc(F)c(F)c2OC(F)F)ccn1` (single isomer, unassigned) [Compound 89] was 100 to 1000 nM.
Regarding `COc1cc(NC(=O)[C@@H]2O[C@@](C)(C(F)(F)F)[C@@H](C)[C@H]2c2ccc(F)c(F)c2OCCO)c(F)cn1` [Compound 570, (2R,3S,4S,5R)-3-(3,4-difluoro-2-(2-hydroxyethoxy)phenyl)-N-(5-fluoro-2-methoxypyridin-4-yl)-4,5-dimethyl-5-(trifluoromethyl)tetrahydrofuran-2-carboxamide], the IC50 under setting [1] is 10 to 100 nM.
On the same count and under the same terms, the value for `COc1c([C@H]2[C@H](C(=O)Nc3ccnc(OC(F)F)c3)O[C@@](C)(C(F)(F)F)[C@H]2C)ccc(F)c1F` [Compound 189, (2R,3S,4S,5R)-3-(3,4-difluoro-2-methoxyphenyl)-N-(2-(difluoromethoxy)pyridin-4-yl)-4,5-dimethyl-5-(trifluoromethyl)tetrahydrofuran-2-carboxamide] was 10 to 100 nM.
Still for that read-out and setting: next, `CCOc1c([C@H]2[C@H](C(=O)Nc3ccnc(S(C)(=N)=O)c3)O[C@@](C)(C(F)(F)F)[C@H]2C)ccc(F)c1C` (relative stereo) [Compound 125, rel-(2R,3S,4S,5R)-3-(2-ethoxy-4-fluoro-3-methylphenyl)-4,5-dimethyl-N-(2-(S-methylsulfonimidoyl)pyridin-4-yl)-5-(trifluoromethyl)tetrahydrofuran-2-carboxamide]: < 10 nM; `COc1c([C@H]2[C@H](C(=O)Nc3ccnc([S+](C)[O-])c3)O[C@@](C)(C(F)(F)F)[C@H]2C)ccc(F)c1F` (single isomer, unassigned) [Compound 8]: < 10 nM.
On the same count and under the same terms, next, `CNC(c1cc(NC(=O)[C@@H]2O[C@@](C)(C(F)(F)F)[C@@H](C)[C@H]2c2ccc(F)c(F)c2OC)ccn1)C(C)(C)OC` (single isomer, unassigned) [Compound 344, rel-(2R*,3S*,4S*,5R*)-3-(3,4-difluoro-2-methoxyphenyl)-N-(2-(2-methoxy-2-methyl-1-(methylamino)propyl)pyridin-4-yl)-4,5-dimethyl-5-(trifluoromethyl)-tetrahydrofuran-2-carboxamide]: < 10 nM; `COc1c([C@H]2[C@H](C(=O)NCCc3ncc[nH]3)O[C@@](C)(C(F)(F)F)[C@H]2C)ccc(F)c1F` [Compound 272, (2R,3S,4S,5R)-3-(3,4-difluoro-2-methoxy-phenyl)-N-[2-(1H-imidazol-2-yl)ethyl]-4,5-dimethyl-5-(trifluoromethyl)tetrahydrofuran-2-carboxamide]: ≥ 1000 nM.
For `C[C@H]1[C@@H](c2ccc(F)c(F)c2OCCOC(F)F)[C@H](C(=O)Nc2ccnc(CO)c2)O[C@@]1(C)C(F)(F)F` [Compound 641, (2R,3S,4S,5R)-3-(2-(2-(difluoromethoxy)ethoxy)-3,4-difluorophenyl)-N-(2-(hydroxymethyl)pyridin-4-yl)-4,5-dimethyl-5-(trifluoromethyl)tetrahydrofuran-2-carboxamide], the IC50 under setting [1] is < 10 nM.
Still for that read-out and setting: the value for `C[C@@H]1[C@H](c2ccc(F)c(F)c2OC(F)F)[C@@H](C(=O)Nc2ccnc(CC(C)(C)O)c2)O[C@]1(C)C(F)(F)F` (single isomer, unassigned) [Compound 463] was ≥ 1000 nM; that for `Cc1nn(C(F)F)cc1NC(=O)[C@@H]1O[C@@](C)(C(F)(F)F)[C@@H](C)[C@H]1c1ccc(F)c(F)c1CCN1CC2(COC2)C1` [Compound 679, (2R,3S,4S,5R)-N-[1-(difluoromethyl)-3-methyl-pyrazol-4-yl]-3-[3,4-difluoro-2-[2-(2-oxa-6-azaspiro[3.3]heptan-6-yl)ethyl]phenyl]-4,5-dimethyl-5-(trifluoromethyl)tetrahydrofuran-2-carboxamide] was ≥ 1000 nM.
As to `CCc1c(F)ccc([C@@H]2C[C@](C)(C(F)(F)F)O[C@H]2C(=O)Nc2cn(S(C)(=O)=O)nc2C)c1OC` (stereo in doubt) [Compound 717, rel-(2R,3S,5R)-3-(3-ethyl-4-fluoro-2-methoxyphenyl)-5-methyl-N-(3-methyl-1-(methylsulfonyl)-1H-pyrazol-4-yl)-5-(trifluoromethyl)tetrahydrofuran-2-carboxamide], the IC50 (in the presence of human serum (compound numbers followed by *), read-out: IC50 in the E-VIPR Assay, performed in the presence of human serum) was in the range of 100 to 1000 nM.
Turning to `COc1c([C@H]2[C@H](C(=O)Nc3ccnc(CN4CCCC4)c3)O[C@@](C)(C(F)(F)F)[C@H]2C)ccc(F)c1F` [Compound 184, (2R,3S,4S,5R)-3-(3,4-difluoro-2-methoxyphenyl)-4,5-dimethyl-N-(2-(pyrrolidin-1-ylmethyl)pyridin-4-yl)-5-(trifluoromethyl)tetrahydrofuran-2-carboxamide], the IC50 under setting [1] was < 10 nM.
On the same count and under the same terms, next, `COc1c([C@H]2[C@H](C(=O)Nc3cnc(CO)n3C)O[C@@](C)(C(F)(F)F)[C@H]2C)ccc(F)c1F` [Compound 21, (2R,3S,4S,5R)-3-(3,4-difluoro-2-methoxy-phenyl)-N-[2-(hydroxymethyl)-3-methyl-imidazol-4-yl]-4,5-dimethyl-5-(trifluoromethyl)tetrahydrofuran-2-carboxamide]: 10 to 100 nM; `Cc1nn(C(F)F)cc1NC(=O)[C@@H]1O[C@@](C)(C(F)(F)F)[C@@H](C)[C@H]1c1ccc(F)c(F)c1OCC(=O)O` [Compound 603, 2-(6-((2R,3S,4S,5R)-2-((1-(difluoromethyl)-3-methyl-1H-pyrazol-4-yl)carbamoyl)-4,5-dimethyl-5-(trifluoromethyl)tetrahydrofuran-3-yl)-2,3-difluorophenoxy)acetic acid]: ≥ 1000 nM.
Same read-out and setting: next, `COc1c([C@H]2[C@H](C(=O)Nc3ccnc(N4C[C@@H](C)NCC4=O)c3)O[C@@](C)(C(F)(F)F)[C@H]2C)ccc(F)c1F` [Compound 480, (2R,3S,4S,5R)-3-(3,4-difluoro-2-methoxyphenyl)-4,5-dimethyl-N-(2-((R)-5-methyl-2-oxopiperazin-1-yl)pyridin-4-yl)-5-(trifluoromethyl)tetrahydrofuran-2-carboxamide]: < 10 nM; `C[C@@H]1[C@H](c2ccc(F)c(F)c2)[C@@H](C(=O)Nc2ccnc(S(C)(=O)=O)c2)O[C@]1(C)C(F)(F)F` (stereo in doubt) [Compound 154, rel-(2S,3R,4R,5S)-3-(3,4-difluorophenyl)-4,5-dimethyl-N-(2-(methylsulfonyl)pyridin-4-yl)-5-(trifluoromethyl)tetrahydrofuran-2-carboxamide]: ≥ 1000 nM.
Still for that read-out and setting: the value for `COc1c([C@H]2[C@H](C(=O)NC3CCOCC3)O[C@@](C)(C(F)(F)F)[C@H]2C)ccc(F)c1F` [Compound 269, (2R,3S,4S,5R)-3-(3,4-difluoro-2-methoxyphenyl)-4,5-dimethyl-N-(tetrahydro-2H-pyran-4-yl)-5-(trifluoromethyl)tetrahydrofuran-2-carboxamide] was ≥ 1000 nM.
